{"source": "patent US8252740B2", "about": "“Thermally-targeted delivery of medicaments including doxorubicin” (The University of Mississippi Medical Center, priority 2006, dated 2012)", "key": {"MES-SA cells [1]": {"system": "MES-SA cells", "assay": "Caspase activation, FLICA polycaspase assay with flow cytometry", "assay_type": "cell-based, human", "details": "10 μM", "description": "MES-SA cells were treated for 1 h at 37 or 42° C. with Tat-ELP-GFLG-DOX (SEQ ID NO: 3), the control construct lacking the Tat sequence, with free DOX. Cells were harvested after the 1 h exposure, and caspase activity was detected using a fluorescent caspase inhibitor (Immunochemistry Technologies, Bloomington, Minn.) and flow cytometry.\nCaspase activation was measured using a carboxyfluorescein FLICA polycaspase assay (Immunochemistry Technologies, Bloomington, Minn.). Cells were treated as described above with the indicated protein, collected by trypsinization, and stained for 2 h at 37° C. with the carboxyfluorescein FLICA reagent as described by the manufacturer. Cells were rinsed twice and analyzed for caspase activation by flow cytometry using a Cytomics FC 500 flow cytometer (n=5,000 cells). Forward versus side scatter gating was used to eliminate cell debris from the analysis, and a histogram of fluorescein fluorescence (channel FL1) was bimodal with peaks for caspase positive and caspase negative cells. The percentage of caspase positive cells was determined from the histograms and expressed as an average of 3 experiments.\nMES-SA cells were treated as described above, cells were harvested after the 1 h exposure, and caspase activity was detected using a fluorescent caspase inhibitor and flow cytometric analysis. […] Cell numbers under each peak were quantified and averaged to determine the percentage of the cell population in which caspases were activated under each treatment condition. […] In fact, the percent of caspase positive cells was enhanced almost 4 fold when cells were treated with Tat-ELP1-GFLG-Dox (SEQ ID NO: 3) at 42° C. versus 37° C. (p<0.05)."}, "MES-SA cells [2]": {"system": "MES-SA cells", "assay": "Confocal fluorescence microscopy of intracellular localization", "assay_type": "cell-based, human", "details": "10 μM", "description": "1.7. Laser Scanning Confocal Fluorescence Microscopy. MES-SA cells were plated on 22 mm^2 cover slips at approximately 50% confluence and treated as described above with Tat-ELP-GFLG-Dox (SEQ ID NO: 3). Cells were rinsed with PBS at the indicated times, fixed with paraformaldehyde (PFA, 2% v/v) and visualized using a TCS SP2 laser scanning confocal microscope with a 100× oil immersion objective (Leica, Wetzlar, Germany). PMT voltages were lowered for imaging of cells treated at 42° C. during image acquisition to maximize image resolution and intensity.\n3.4. Cellular Distribution. To confirm that Tat-ELP-GFLG-Dox (SEQ ID NO: 3) was internalized and not merely attached to the cell exterior, the cellular distribution of the ELP-delivered drug was examined by confocal fluorescence microscopy. MES-SA cells were treated for 1 h at 37° C. and 42° C. with 10 μM Tat-ELP1-GFLG-Dox (SEQ ID NO: 3). The cells were rinsed and analyzed immediately after treatment and 24 h later using the intrinsic Dox fluorescence. […] Untreated cells had no signal under the imaging settings used, ruling out any contribution to the images from autofluorescence (FIG. 7B, right panel)."}}}
{"substance": "Tat-ELP1-GFLG-Dox", "values": [{"measurement": "Enhancement of percent caspase positive cells at 42° C. versus 37° C.", "setting": "MES-SA cells [1]; 1 h", "value": "~4", "unit": "fold"}, {"measurement": "Caspase activation / apoptosis induction", "setting": "MES-SA cells [1]; 1 h at 37° C.", "value": "slightly above control levels"}, {"measurement": "Caspase activation / apoptosis induction", "setting": "MES-SA cells [1]; 1 h at 42° C.", "value": "significantly higher proportion of the population"}, {"measurement": "Intracellular localization of Dox", "setting": "MES-SA cells [2]; 24 h after 1 h exposure", "value": "remained in the cell cytoplasm"}, {"measurement": "Intracellular localization of Dox", "setting": "MES-SA cells [2]; after 1 h exposure", "value": "plasma and nuclear membranes as well as in a punctate pattern in the cytoplasm"}]}
